In patent US20230286970A1, “NOVEL OXADIAZOLE-BASED SELECTIVE HDAC6 INHIBITORS” (ITALFARMACO S.P.A., priority 2020, published 2023) one finds IC50 data, which are given here for 11 compounds.

One assay has as its target recombinant human HDAC1 (Homo sapiens (Human), UniProt Q13547). Kind of assay: Enzymatic screening, HDAC1 inhibition (fluorogenic FdL_G substrate). In kind it is biochemical. In outline: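 Recombinant human HDAC1 inhibition was measured fluorometrically using the FLUOR DE LYS-Green (FdL_G) substrate. Compounds at 8 doses (1% DMSO final) in Tris-HCl pH 8 buffer with NaCl, Tween-20 and glycerol were preincubated in triplicate with enzyme and 1 mg/mL BSA, then given substrate. Developer I plus 2 μM TSA was added, and fluorescence read after 25 minutes in the dark.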

Another assay concerns the target recombinant human HDAC6 (Homo sapiens (Human), UniProt Q9UBN7). Briefly: Enzymatic screening, HDAC6 inhibition (fluorogenic FdL_G substrate). Type of assay: biochemical. The procedure, abridged: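 Enzyme was preincubated with compound (8 doses, triplicate, 1% DMSO) in 25 mM Tris-HCl pH 8, 130 mM NaCl, 0.05% Tween-20, 10% glycerol, with BSA. A FLUOR DE LYS-Green substrate was then added, and fluorescence was read after developer plus 2 μM TSA.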

recombinant human HDAC6, sequence (Q9UBN7 whole entry): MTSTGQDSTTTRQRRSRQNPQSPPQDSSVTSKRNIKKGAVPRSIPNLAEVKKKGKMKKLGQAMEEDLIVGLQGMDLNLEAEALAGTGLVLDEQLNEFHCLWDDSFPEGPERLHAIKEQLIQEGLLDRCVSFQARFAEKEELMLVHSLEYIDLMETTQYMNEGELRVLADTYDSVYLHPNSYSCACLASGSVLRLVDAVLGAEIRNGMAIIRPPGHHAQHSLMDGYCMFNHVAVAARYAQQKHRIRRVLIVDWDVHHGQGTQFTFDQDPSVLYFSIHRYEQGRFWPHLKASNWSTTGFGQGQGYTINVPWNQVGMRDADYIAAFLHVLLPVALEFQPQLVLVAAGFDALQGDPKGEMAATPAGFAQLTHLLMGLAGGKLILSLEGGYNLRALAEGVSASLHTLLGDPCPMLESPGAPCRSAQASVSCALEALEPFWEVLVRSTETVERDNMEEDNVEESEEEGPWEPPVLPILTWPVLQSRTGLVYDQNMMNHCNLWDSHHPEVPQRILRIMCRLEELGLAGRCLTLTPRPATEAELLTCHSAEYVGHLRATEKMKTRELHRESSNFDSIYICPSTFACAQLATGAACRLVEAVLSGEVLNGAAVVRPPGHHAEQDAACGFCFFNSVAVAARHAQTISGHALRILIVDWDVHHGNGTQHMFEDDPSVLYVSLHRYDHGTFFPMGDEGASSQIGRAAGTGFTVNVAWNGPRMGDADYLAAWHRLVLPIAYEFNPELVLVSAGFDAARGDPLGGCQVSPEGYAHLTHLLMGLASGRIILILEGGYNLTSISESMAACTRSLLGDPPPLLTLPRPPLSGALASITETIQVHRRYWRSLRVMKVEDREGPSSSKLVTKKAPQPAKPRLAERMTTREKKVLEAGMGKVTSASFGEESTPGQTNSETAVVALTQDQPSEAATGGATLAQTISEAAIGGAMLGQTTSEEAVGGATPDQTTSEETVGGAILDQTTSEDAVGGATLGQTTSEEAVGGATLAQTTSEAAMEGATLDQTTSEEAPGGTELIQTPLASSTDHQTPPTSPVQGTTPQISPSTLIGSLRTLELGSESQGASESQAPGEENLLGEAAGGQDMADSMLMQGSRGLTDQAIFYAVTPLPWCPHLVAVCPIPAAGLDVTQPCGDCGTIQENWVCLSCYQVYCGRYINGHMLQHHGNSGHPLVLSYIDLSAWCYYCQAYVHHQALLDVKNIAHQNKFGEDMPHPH
recombinant human HDAC1, sequence (Q13547 whole entry): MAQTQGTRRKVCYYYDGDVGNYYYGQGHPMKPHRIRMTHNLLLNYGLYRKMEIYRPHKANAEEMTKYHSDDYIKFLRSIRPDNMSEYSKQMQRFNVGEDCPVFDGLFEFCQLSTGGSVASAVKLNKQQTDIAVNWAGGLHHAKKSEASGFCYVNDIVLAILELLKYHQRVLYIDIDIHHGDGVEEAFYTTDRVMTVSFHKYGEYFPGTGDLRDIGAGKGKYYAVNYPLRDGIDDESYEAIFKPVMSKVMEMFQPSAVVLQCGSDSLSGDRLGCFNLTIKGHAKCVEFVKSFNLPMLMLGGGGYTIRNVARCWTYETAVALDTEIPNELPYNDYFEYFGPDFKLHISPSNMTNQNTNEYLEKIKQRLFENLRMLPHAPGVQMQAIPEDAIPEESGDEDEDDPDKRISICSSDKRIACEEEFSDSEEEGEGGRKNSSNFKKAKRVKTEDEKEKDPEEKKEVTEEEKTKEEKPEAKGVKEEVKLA

`CCS(=O)(=O)N1CCN(Cc2ccc(-c3cn(Cc4c(F)cc(-c5nnc(C(F)F)o5)cc4F)nn3)cc2)CC1` [compound 169, 2-(difluoromethyl)-5-(4-((4-(4-((4-(ethylsulfonyl)piperazin-1-yl)methyl)phenyl)-1H-1,2,3-triazol-1-yl)methyl)-3,5-difluorophenyl)-1,3,4-oxadiazole]: the IC50 at recombinant human HDAC1 was above 200000 nM; at recombinant human HDAC6 it was 81 nM.
With `CN1CCc2ccc(-c3nnn(Cc4ccc(-c5nnc(C(F)F)o5)cc4)n3)cc2C1=O` [compound 173, 7-(2-(4-(5-(difluoromethyl)-1,3,4-oxadiazol-2-yl)benzyl)-2H-tetrazol-5-yl)-2-methyl-3,4-dihydroisoquinolin-1 (2H)-one], the IC50 at recombinant human HDAC1 was above 200000 nM; at recombinant human HDAC6 it was 86 nM.
Consider `NC(=S)Nc1cccc(-c2cn(Cc3c(F)cc(-c4nnc(C(F)F)o4)cc3F)nn2)c1` [compound 175, 1-(3-(1-(4-(5-(difluoromethyl)-1,3,4-oxadiazol-2-yl)-2,6-difluorobenzyl)-1H-1,2,3-triazol-4-yl)phenyl)thiourea], for which the results for the half-inhibitory concentration (IC50) on recombinant human HDAC1 and at recombinant human HDAC6 were above 200000 nM and 88 nM, respectively.
Consider `CNc1ccc(-c2nnn(Cc3ccc(-c4nnc(C(F)F)o4)cc3)n2)cc1NC(=O)N1CCOCC1` [compound 176, N-(5-(2-(4-(5-(difluoromethyl)-1,3,4-oxadiazol-2-yl)benzyl)-2H-tetrazol-5-yl)-2-(methylamino)phenyl)morpholine-4-carboxamide], for which the half-inhibitory concentration (IC50) on recombinant human HDAC1 was above 200000 nM; at recombinant human HDAC6 it was 88 nM.
`CC(C)(C)OC(=O)N1CCC2(C1)C(=O)Nc1ccc(-c3cn(Cc4ccc(-c5nnc(C(F)F)o5)cc4)nn3)cc12` (stereo not shown) [compound 177, tert-butyl 5-(1-(4-(5-(difluoromethyl)-1,3,4-oxadiazol-2-yl)benzyl)-1H-1,2,3-triazol-4-yl)-2-oxospiro[indoline-3,3′-pyrrolidine]-1′-carboxylate]: the IC50 at recombinant human HDAC1 was above 200000 nM; at recombinant human HDAC6 it was 89 nM.
As for `Nc1ncnc2sc(-c3cn(Cc4ccc(-c5nnc(C(F)F)o5)cc4)nn3)cc12` [compound 178, 6-(1-(4-(5-(difluoromethyl)-1,3,4-oxadiazol-2-yl)benzyl)-1H-1,2,3-triazol-4-yl)thieno[2,3-d]pyrimidin-4-amine], the IC50 was above 200000 nM at recombinant human HDAC1 and 89 nM at recombinant human HDAC6.
Regarding `CN(Cc1ccncc1)Cc1ccc(-c2cn(Cc3c(F)cc(-c4nnc(C(F)F)o4)cc3F)nn2)cc1` [compound 179, N-(4-(1-(4-(5-(difluoromethyl)-1,3,4-oxadiazol-2-yl)-2,6-difluorobenzyl)-1H-1,2,3-triazol-4-yl)benzyl)-N-methyl-1-(pyridin-4-yl)methanamine], the IC50 at recombinant human HDAC1 is above 200000 nM; at recombinant human HDAC6, 90 nM.
On to `CCNc1cccc(-c2cn(Cc3ccc(-c4nnc(C(F)F)o4)cc3)nn2)c1` [compound 180, 3-(1-(4-(5-(difluoromethyl)-1,3,4-oxadiazol-2-yl)benzyl)-1H-1,2,3-triazol-4-yl)-N-ethylaniline], for which the figures for the IC50 on recombinant human HDAC1 and at recombinant human HDAC6 were above 200000 nM and 92 nM, respectively.
Take `Fc1ccccc1-c1nnn(Cc2ccc(-c3nnc(C(F)F)o3)cc2)n1` [compound 181, 2-(difluoromethyl)-5-(4-((5-(2-fluorophenyl)-2H-tetrazol-2-yl)methyl)phenyl)-1,3,4-oxadiazole]: the concentration for half-maximal inhibition (IC50) at recombinant human HDAC1 is above 200000 nM; on recombinant human HDAC6 it was 92 nM.
As to `CC(=O)N(Cc1ccco1)c1cccc(-c2cn(Cc3c(F)cc(-c4nnc(C(F)F)o4)cc3F)nn2)c1` [compound 183, N-(3-(1-(4-(5-(difluoromethyl)-1,3,4-oxadiazol-2-yl)-2,6-difluorobenzyl)-1H-1,2,3-triazol-4-yl)phenyl)-N-(furan-2-ylmethyl)acetamide], the IC50 was above 200000 nM on recombinant human HDAC1 and 93 nM at recombinant human HDAC6.
Consider `FC(F)c1nnc(-c2ccc(Cn3nnc(-c4cccc(-n5cccn5)c4)n3)cc2)o1` [compound 188, 2-(4-((5-(3-(1H-pyrazol-1-yl)phenyl)-2H-tetrazol-2-yl)methyl)phenyl)-5-(difluoromethyl)-1,3,4-oxadiazole], for which the IC50 is above 200000 nM at recombinant human HDAC1 and 99 nM on recombinant human HDAC6.

As usually defined, the IC50 is the concentration needed to halve the response being measured.
